The subject of one series is MCF-7 cells. Nature of the series: MTT cell viability of MCF-7 cells cultured 72 hours in test media. It counts as cell-based, Human. As for the experimental part: (§1) As a preliminary step, cancer cells are cultured overnight. For example, the cancer cells may be cultured in an incubator under the standard conditions (a 37° C., 5% (v/v) CO2 and humidified environment) for […]. MTT (3-(4,5-dimethylthiazol-2-yl)-2,5-diphenyltetrazolium bromide), a colorimetric assay (Sigma-Aldrich) was harnessed to qualify the cell viability. The initial media which had been used to culture cancer cells overnight may be discarded prior to treatment with CAPs media. […]
(§2) For each cell line, the protocol was identical. […] Ultimately, according to the standard method, the viability of U87 cells were qualified by MTT test and were read by a H1 microplate reader (Hybrid Technology) at the absorbance of 570 nm.
(§3) The protocols for three cell lines were identical. […] Ultimately, the cell viability was measured.
(§4) The protocol for three cell lines was identical. […] Second, we respectively prepared 2.4 mM specific amino acids rich DMEM by dissolving specific quantities of amino acids powers (Sigma-Aldrich) in DMEM (1% ABS). […]

The next series concerns U87 cells. The series is described as follows: MTT cell viability of U87 cells cultured 72 hours in test media. The class given is cell-based, Human. The procedure:
as §1, §2, §3, §4

[1] abbreviates: H2O2 in complete media, nominal 1-100 μM, 72 hours.

Experimental findings from US10479979B2, “Method for making and using cold atmospheric plasma stimulated media for cancer treatment” (U.S. Patent Innovations, LLC, priority 2015, dated 2019) are described below.

Regarding `OO` [H2O2, hydrogen peroxide], the “resistance to H2O2 rich media” value in the series with MCF-7 cells (setting [1]) and in the series with U87 cells (setting [1]) was “stronger resistance to H2O2 than MDA-MB-231 cells” each time.

In the case of `N[C@@H](Cc1c[nH]c2ccccc12)C(=O)O` [tryptophan], the “growth of cancer cells in untreated amino acid rich DMEM (control group, toxicity)” value is “strong resistance to growth of cancer cells” in the series with MCF-7 cells (2.4 mM, no CAP treatment) and “strong resistance to growth of cancer cells” in the series on U87 cells (2.4 mM, no CAP treatment).
